The source made the active and inactive calls. Rule as the data show it: actives have a measured IC50 and inactives only a lower limit.

For the assay, the target named is Envelope glycoprotein gp160 (Human immunodeficiency virus 1, UniProt Q6QLK5). The experiment in a line: inhibitors of HIV fusion peptide binding, primary screen, biochemical, uHTS, fluorescence dequenching (AID 1986).
Envelope glycoprotein gp160, sequence (Q6QLK5 whole entry, the tested form may be a part): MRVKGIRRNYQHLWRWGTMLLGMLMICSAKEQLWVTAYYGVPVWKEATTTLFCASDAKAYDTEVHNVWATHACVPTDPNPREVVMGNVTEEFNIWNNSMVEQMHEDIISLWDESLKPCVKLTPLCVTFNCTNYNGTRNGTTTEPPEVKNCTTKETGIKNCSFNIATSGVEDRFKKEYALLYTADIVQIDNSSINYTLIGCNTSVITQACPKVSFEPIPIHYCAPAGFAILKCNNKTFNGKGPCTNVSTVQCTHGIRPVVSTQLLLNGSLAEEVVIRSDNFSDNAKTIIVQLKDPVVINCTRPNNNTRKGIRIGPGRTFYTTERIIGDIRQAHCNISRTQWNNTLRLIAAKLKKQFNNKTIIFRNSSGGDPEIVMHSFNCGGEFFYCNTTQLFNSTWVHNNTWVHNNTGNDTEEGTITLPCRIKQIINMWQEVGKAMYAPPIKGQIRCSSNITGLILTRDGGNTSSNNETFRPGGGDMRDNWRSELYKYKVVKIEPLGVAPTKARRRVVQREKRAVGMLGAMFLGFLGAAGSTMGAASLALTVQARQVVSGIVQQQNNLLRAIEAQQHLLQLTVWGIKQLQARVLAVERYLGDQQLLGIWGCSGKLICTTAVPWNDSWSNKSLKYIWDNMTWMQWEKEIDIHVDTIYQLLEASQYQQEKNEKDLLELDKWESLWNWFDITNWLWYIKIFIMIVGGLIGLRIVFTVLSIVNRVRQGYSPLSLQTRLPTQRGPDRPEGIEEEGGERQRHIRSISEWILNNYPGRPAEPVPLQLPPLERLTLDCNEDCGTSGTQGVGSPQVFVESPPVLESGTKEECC
Regarding `Cc1ccccc1NC1=NC(=O)/C(=C/c2cccn2-c2cccc(C(=O)O)c2)S1`, the 50% inhibitory concentration (IC50) (in general, the point on the concentration scale where inhibition reaches its midpoint) is 11.3 µM (active). The result for `O=C(Nc1ccc(-c2nc3ccccc3[nH]2)cc1)c1ccccc1NS(=O)(=O)c1ccc(F)cc1` reads 24.6 µM (active). The result for `CCCCCCCCCCCCCCCC[n+]1ccn(CC(C)=O)c1` reads 14.4 µM (active).

Source of the values: ChEMBL document CHEMBL1201862, “PubChem BioAssay data set” (2004).
